Experimental data: patent US9695155B2, “Herbicidal substituted pyrimidinyloxy benzene compounds” (E. I. DU PONT DE NEMOURS AND COMPANY, priority 2013, dated 2017)

How the values were obtained:
giant foxtail [1] = test: Test A preemergence; type: in vivo, Setaria faberii; settings: for Foxtail, Giant plant response rating: 500 g ai/ha
Procedure, shortened: (§1)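 Compounds in non-phytotoxic solvent with surfactant applied as soil spray preemergence, or postemergence to plants 2-10 cm at one- to two-leaf stage, in loam/sand. After approximately 10 days in greenhouse, injury rated visually versus untreated controls, 0 (no effect) to 100 (complete control).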

corn [2] = test: Test A preemergence; type: in vivo, Zea mays; settings: for Corn plant response rating: 500 g ai/ha
Procedure, shortened: as §1

wheat [3] = test: Test A preemergence; type: in vivo, Triticum aestivum; settings: for Wheat plant response rating (0 to 100 scale): 125 g ai/ha; for Wheat plant response rating: 500 g ai/ha, 0 to 100 scale where 0 is no effect and 100 is complete control
Procedure, shortened: as §1

velvetleaf [4] = test: Test A preemergence; type: in vivo, Abutilon theophrasti; settings: for Velvetleaf plant response rating (0 to 100 scale): 125 g ai/ha; for Velvetleaf plant response rating: 500 g ai/ha, 0 to 100 scale where 0 is no effect and 100 is complete control
Procedure, shortened: as §1

giant foxtail [5] = test: Test A postemergence; type: in vivo, Setaria faberii; settings: 0 to 100 scale where 0 is no effect and 100 is complete control; for Foxtail, Giant plant response rating: 125 g ai/ha; for Plant response rating, Foxtail, Giant: 500 g ai/ha
Procedure, shortened: as §1

pigweed [6] = test: Test A preemergence; type: in vivo, Amaranthus retroflexus; settings: for Pigweed plant response rating (0 to 100 scale): 125 g ai/ha; for Pigweed plant response rating: 500 g ai/ha, 0 to 100 scale where 0 is no effect and 100 is complete control
Procedure, shortened: as §1

corn [7] = test: Test A postemergence; type: in vivo, Zea mays; settings: 0 to 100 scale where 0 is no effect and 100 is complete control; for Corn plant response rating: 125 g ai/ha; for Plant response rating, Corn: 500 g ai/ha
Procedure, shortened: as §1

large (Lg) crabgrass [8] = test: Test A postemergence; type: in vivo, Digitaria sanguinalis; settings: 0 to 100 scale where 0 is no effect and 100 is complete control; for Crabgrass, Large plant response rating: 125 g ai/ha; for Plant response rating, Crabgrass, Large: 500 g ai/ha
Procedure, shortened: as §1

Heteranthera limosa = test: Test B flooded paddy test; type: in vivo; settings: Flood, 250 g ai/ha; 0 to 100 scale where 0 is no effect and 100 is complete control
Procedure, shortened: (§2)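 Greenhouse flooded-pot test: compounds dosed into 3 cm standing water over 2-leaf plants, flood held constant. Rated visually after 13–15 days on 0–100 (complete control = 100); a dash marks no test result.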

sedge, umbrella = test: Test B flooded paddy test; type: in vivo, Cyperus difformis; settings: Flood, 250 g ai/ha; 0 to 100 scale where 0 is no effect and 100 is complete control
Procedure, shortened: as §2

morningglory [9] = test: Test A postemergence; type: in vivo, Ipomoea spp.; settings: 0 to 100 scale where 0 is no effect and 100 is complete control; for Morningglory plant response rating: 125 g ai/ha; for Plant response rating, Morningglory: 500 g ai/ha
Procedure, shortened: as §1

rice = test: Test B flooded paddy test; type: in vivo, Oryza sativa; settings: Flood, 250 g ai/ha; 0 to 100 scale where 0 is no effect and 100 is complete control
Procedure, shortened: as §2

morningglory [10] = test: Test A preemergence; type: in vivo, Ipomoea spp.; settings: for Morningglory plant response rating (0 to 100 scale): 125 g ai/ha; for Morningglory plant response rating: 500 g ai/ha, 0 to 100 scale where 0 is no effect and 100 is complete control
Procedure, shortened: as §1

pigweed [11] = test: Test A postemergence; type: in vivo, Amaranthus retroflexus; settings: 0 to 100 scale where 0 is no effect and 100 is complete control; for Pigweed plant response rating: 125 g ai/ha; for Plant response rating, Pigweed: 500 g ai/ha
Procedure, shortened: as §1

wheat [12] = test: Test A postemergence; type: in vivo, Triticum aestivum; settings: 0 to 100 scale where 0 is no effect and 100 is complete control; for Wheat plant response rating: 125 g ai/ha; for Plant response rating, Wheat: 500 g ai/ha
Procedure, shortened: as §1

barnyardgrass [13] = test: Test A postemergence; type: in vivo, Echinochloa crus-galli; settings: 0 to 100 scale where 0 is no effect and 100 is complete control; for Barnyardgrass plant response rating: 125 g ai/ha; for Plant response rating, Barnyardgrass: 500 g ai/ha
Procedure, shortened: as §1

barnyardgrass [14] = test: Test A preemergence; type: in vivo, Echinochloa crus-galli; settings: for Barnyardgrass plant response rating: 500 g ai/ha
Procedure, shortened: as §1

velvetleaf [15] = test: Test A postemergence; type: in vivo, Abutilon theophrasti; settings: 0 to 100 scale where 0 is no effect and 100 is complete control; for Velvetleaf plant response rating: 125 g ai/ha; for Plant response rating, Velvetleaf: 500 g ai/ha
Procedure, shortened: as §1

large (Lg) crabgrass [16] = test: Test A preemergence; type: in vivo, Digitaria sanguinalis; settings: for Crabgrass, Large plant response rating: 500 g ai/ha
Procedure, shortened: as §1

barnyardgrass [17] = test: Test B flooded paddy test; type: in vivo, Echinochloa crus-galli; settings: Flood, 250 g ai/ha; 0 to 100 scale where 0 is no effect and 100 is complete control
Procedure, shortened: as §2

[18] = 125 g ai/ha, 0 to 100 scale where 0 is no effect and 100 is complete control
[19] = 0 to 100 scale where 0 is no effect and 100 is complete control

SMILES	Foxtail, Giant plant response rating (giant foxtail [1]; [19])	Corn plant response rating (corn [2]; [19])	Wheat plant response rating (0 to 100 scale) (wheat [3])	Wheat plant response rating (wheat [3])	Velvetleaf plant response rating (0 to 100 scale) (velvetleaf [4])	Velvetleaf plant response rating (velvetleaf [4])	Foxtail, Giant plant response rating (giant foxtail [5])	Plant response rating, Foxtail, Giant (giant foxtail [5])	Pigweed plant response rating (0 to 100 scale) (pigweed [6])	Pigweed plant response rating (pigweed [6])	Corn plant response rating (corn [7])	Plant response rating, Corn (corn [7])	Crabgrass, Large plant response rating (large (Lg) crabgrass [8])	Plant response rating, Crabgrass, Large (large (Lg) crabgrass [8])	Plant response rating, Ducksalad (Heteranthera limosa)	Plant response rating, Sedge, Umbrella (sedge, umbrella)	Morningglory plant response rating (morningglory [9])	Plant response rating, Morningglory (morningglory [9])	Plant response rating, Rice (rice)	Morningglory plant response rating (0 to 100 scale) (morningglory [10])	further results
FC(F)c1cccc(Oc2ncc(I)cn2)c1-n1cc(Br)cn1 [Compound 173]	70	0	0	0	0	0	10	50	80	100	0	20	0	40	0	0	0	0	0	0	Plant response rating, Foxtail, Giant (giant foxtail [1]; [18]): 50; Plant response rating, Corn (corn [2]; [18]): 0; Morningglory plant response rating (morningglory [10]): 0; Pigweed plant response rating (pigweed [11]): 100; Plant response rating, Pigweed (pigweed [11]): 100; Wheat plant response rating (wheat [12]): 0; Plant response rating, Wheat (wheat [12]): 0; Barnyardgrass plant response rating (barnyardgrass [13]): 0; Plant response rating, Barnyardgrass (barnyardgrass [13]): 30; Plant response rating, Barnyardgrass (barnyardgrass [14]; [18]): 0; Barnyardgrass plant response rating (barnyardgrass [14]; [19]): 30; Velvetleaf plant response rating (velvetleaf [15]): 60; Plant response rating, Velvetleaf (velvetleaf [15]): 70; Plant response rating, Crabgrass, Large (large (Lg) crabgrass [16]; [18]): 20; Crabgrass, Large plant response rating (large (Lg) crabgrass [16]; [19]): 80; Plant response rating, Barnyardgrass (barnyardgrass [17]): 0
N#Cc1cccc(Oc2ncc(Cl)cn2)c1-n1cc(Br)cn1 [Compound 235]	100	0	0	0	0	0	0	30	90	100	0	0	10	30	0	0	30	30	0	0	Foxtail, Giant plant response rating (0 to 100 scale) (giant foxtail [1]; 125 g ai/ha): 30; Corn plant response rating (0 to 100 scale) (corn [2]; 125 g ai/ha): 0; Morningglory plant response rating (morningglory [10]): 0; Pigweed plant response rating (pigweed [11]): 90; Plant response rating, Pigweed (pigweed [11]): 100; Wheat plant response rating (wheat [12]): 0; Plant response rating, Wheat (wheat [12]): 0; Barnyardgrass plant response rating (barnyardgrass [13]): 0; Plant response rating, Barnyardgrass (barnyardgrass [13]): 0; Barnyardgrass plant response rating (0 to 100 scale, 0 is no effect, 100 is complete control) (barnyardgrass [14]; 125 g ai/ha): 0; Barnyardgrass plant response rating (barnyardgrass [14]; [19]): 10; Velvetleaf plant response rating (velvetleaf [15]): 30; Plant response rating, Velvetleaf (velvetleaf [15]): 30; Crabgrass, Large plant response rating (0 to 100 scale) (large (Lg) crabgrass [16]; 125 g ai/ha): 70; Crabgrass, Large plant response rating (large (Lg) crabgrass [16]; [19]): 100; Plant response rating, Barnyardgrass (barnyardgrass [17]): 0
